We go through one compound from patent US12295962B2, “Polymorphic compounds and uses thereof” (AskAt Inc., priority 2018, dated 2025).

What all share (assay type): in vivo, BALB/c mice
For experiment [1], the system named is immune cells of CT-26 tumors. The experiment is described as follows: Immune cell composition of CT-26 tumors by multi-color flow cytometry. The following applies: after 7 days dosing, Compound B 15 mg/kg BID p.o., anti-PD1 10 mg/kg Q3D i.p., vs vehicle. The protocol:
The immune cell composition of Compound B (as described in example 14 above) as a single agent and combined with a mouse anti-PD1 antibody was evaluated in the CT-26 mouse colon adenocarcinoma model grown in BALB/c mice. Mice were inoculated subcutaneously in the right flank with 5×10^5 tumor cells. When tumors reached an average size of 85 mm^3 dosing was initiated. The dosing regimens in the 4 separate cohorts comprising 10 mice each are listed as follows:
After dosing animals for 7 days, tumors were resected and used to prepare single cell suspensions. Live cells representing tumor and immune cells were stained with cocktails of antibodies targeting multiple immune cell markers (anti-CD45, anti-CD3, anti-CD4, anti-CD8, anti-CD25, anti-FoxP3, anti-PD-1, anti-CD11c) conjugated to different fluorescent tags. The stained cells were fixed in 4% paraformaldehyde and quantified using a multi-color flow cytometer (Fortessa). The data was analyzed with FloJo software.

Experiment [2] deals with 4T1 mouse breast cancer. The experiment is described as follows: Anti-tumor activity in the 4T1 model, additional experiment (with anti-PD1, 7 mice per cohort). The following applies: during the period of dosing; Compound B 15 mg/kg BID; compared with vehicle group and anti-PD1 dosed alone; FIG. 27. Here is the method: The antitumor activity of Compound B as a single agent and combined with a mouse anti-PD1 antibody was evaluated in the 4T1 mouse breast cancer model grown in BALB/c mice in an additional experiment. Mice were inoculated subcutaneously in the right flank with 3×10^5 tumor cells. When tumors reached an average size of 97 mm^3 dosing was initiated. The dosing regimens in the 4 separate cohorts comprising 7 mice each are as follows: […]

Experiment [3] deals with CT-26 mouse colon adenocarcinoma. Nature of the experiment: Anti-tumor activity in the CT-26 model, additional experiment (with anti-PD1, 7 mice per cohort). The following applies: during the period of dosing; single agents (Compound B 15 mg/kg BID p.o.; anti-PD1 10 mg/kg BIW i.p.); compared with vehicle group; FIG. 26. Here is the method: The antitumor activity of Compound B as a single agent and combined with a mouse anti-PD1 antibody was evaluated in the CT-26 mouse colon adenocarcinoma model grown in BALB/c mice in an additional experiment. Mice were inoculated subcutaneously in the right flank with 5×10^5 tumor cells. When tumors reached an average size of 91 mm^3 dosing was initiated. The dosing regimens in the 4 separate cohorts comprising 7 mice each are as follows: […]

Experiment [4] shares this test system. The experiment is described as follows: Anti-tumor activity in the CT-26 colon adenocarcinoma mouse model (with anti-PD-1, 10 mice per cohort). As to conditions: for tumor growth kinetics: during the period of dosing, compared with vehicle treated mice, FIG. 22. The protocol:
The antitumor activity of Compound B as a single agent and combined with a mouse anti-PD-1 antibody was evaluated in the CT-26 mouse colon adenocarcinoma model grown in BALB/c mice. Mice were inoculated subcutaneously in the right flank with 5×10^5 tumor cells.
When tumors reached an average size of 71 mm^3 (6 days after tumor cell inoculation) dosing was initiated. The dosing regimens in the 8 separate cohorts comprising 10 mice each are as follows: […]

Experiment [5] has as its system 4T1 mouse breast cancer. The experiment is described as follows: Anti-tumor activity in the 4T1 breast cancer mouse model (with anti-CTLA4). Here is the method:
The antitumor activity of Compound B (as described in example 14 above) as a single agent and combined with a mouse anti-CTLA4 antibody was evaluated in the 4T1 mouse breast cancer model grown in BALB/c mice. Mice were inoculated subcutaneously in the right flank with 3×10^5 tumor cells. When tumors reached an average size of 100 mm^3 (7 days after tumor cell inoculation) dosing was initiated.

Where [6] appears, read: 99 days after tumor inoculation, 10 mice per cohort.

Structures are written as SMILES.

Turning to `C[C@H](NC(=O)c1cc(Cl)cnc1Oc1cccc(F)c1)c1ccc(C(=O)O)cc1` [Compound B], the “regulatory T cells (CD45, CD4, FoxP3, CD25 positive) in tumor” value in experiment [1] (FIG. 28a) is “significant decrease”. Further, in experiment [1] (FIG. 28b), the “percentage of dendritic cells (CD45, CD11c positive) in tumor” value is on record as “increased percentage”. In experiment [1] (FIG. 28c), the “percentage of activated T cells (CD45, CD3, CD8; CD25 expression) in tumor” value is “did not”. Further, the tumor growth kinetics result is “less than that of the vehicle group and anti-PD1 when dosed alone” in the experiment with 4T1 mouse breast cancer [2]; “less than that of the vehicle group” in experiment [3]; “not notably different” in experiment [4] (15 mg/kg BID p.o.); “not notably different” in experiment [4] (15 mg/kg QD p.o.); “decreased relative to the vehicle treated mice” with 4T1 mouse breast cancer [5] (during the period of dosing, single agents (Compound B 15 mg/kg BID; anti-CTLA4), relative to vehicle treated mice, FIG. 24). Also, the mice still alive is 1 out of 10 in experiment [4] (setting [6]) and “none” with 4T1 mouse breast cancer [5] (47 days after tumor inoculation, 10 mice per group). Further, the mice tumor free in experiment [4] (setting [6]) is 1 out of 10.
